Measured values taken from publication PMC4681651 (Neuropharmacology, 2015).
pKi: −log10 of the molar value. Several values for one entry are separate records, joined by “and”; a condition that tells them apart may be missing. Identical values can stand only once. Counter-ions that a name gives are not always drawn. Like-named read-outs stand apart in the source and are kept apart here.

Columns and labels:
[1] = molecular target: opiate receptor binding sites labeled by [^3H]-naloxone; assay: [3H]-naloxone binding competition assay in rat forebrain membranes
[2] = test system: Sprague-Dawley rats; assay: Open field locomotor activity; assay type: in vivo; settings: rat, 30 min after injection, 10 min test
[3] = test system: 129SvEv;C57Bl/6J F1 hybrid mice; assay: Home cage locomotor activity; assay type: in vivo; settings: mouse, 0.5, 1, 5, 10 mg/kg i.p., 60 min
[4] = test system: 129SvEv;C57Bl/6J F1 hybrid mice; assay: Marble burying; assay type: in vivo; settings: mouse, 10 min before 15 min test
[5] = test system: Sprague-Dawley rats; assay: Forced swim test; assay type: in vivo; settings: rat, three doses, 300 sec test
[6] = test system: 129SvEv;C57Bl/6J F1 hybrid mice; assay: Forced swim test; assay type: in vivo, mouse; settings: 6 min test; for immobility time vs vehicle: mouse
[7] = test system: Sprague-Dawley rats; assay type: in vivo; settings: rat
[8] = Straub tail observation; assay type: in vivo; settings: doses used in the behavioral studies
[9] = test system: rat α3β4 nAChRs; settings: 2001, cited from earlier work; for block of rat α3β4 nAChR channels: ref Xiao et al.
[10] = 100 mg/kg, sc; ref Pohland et al., 1971; cited from earlier work
[11] = molecular target: human α3β4 nAChRs (Homo sapiens, UniProt P30926+P32297); assay: 86Rb+ efflux assay, block of nicotine-stimulated channel function
Sequence of human α3β4 nAChRs (P32297 32-505): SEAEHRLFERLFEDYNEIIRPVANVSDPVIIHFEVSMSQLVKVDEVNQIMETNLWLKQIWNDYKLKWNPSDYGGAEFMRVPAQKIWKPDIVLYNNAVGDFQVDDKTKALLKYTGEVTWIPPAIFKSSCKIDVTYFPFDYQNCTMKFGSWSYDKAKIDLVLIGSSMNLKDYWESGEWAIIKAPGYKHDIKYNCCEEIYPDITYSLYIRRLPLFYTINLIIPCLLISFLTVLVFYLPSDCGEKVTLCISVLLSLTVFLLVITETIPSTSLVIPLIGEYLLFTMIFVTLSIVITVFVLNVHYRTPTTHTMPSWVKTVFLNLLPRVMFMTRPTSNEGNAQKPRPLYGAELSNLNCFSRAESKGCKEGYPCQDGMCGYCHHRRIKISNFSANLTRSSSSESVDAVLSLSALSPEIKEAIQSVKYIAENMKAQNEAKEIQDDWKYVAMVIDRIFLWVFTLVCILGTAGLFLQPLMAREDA
Sequence of human α3β4 nAChRs (P30926 22-498): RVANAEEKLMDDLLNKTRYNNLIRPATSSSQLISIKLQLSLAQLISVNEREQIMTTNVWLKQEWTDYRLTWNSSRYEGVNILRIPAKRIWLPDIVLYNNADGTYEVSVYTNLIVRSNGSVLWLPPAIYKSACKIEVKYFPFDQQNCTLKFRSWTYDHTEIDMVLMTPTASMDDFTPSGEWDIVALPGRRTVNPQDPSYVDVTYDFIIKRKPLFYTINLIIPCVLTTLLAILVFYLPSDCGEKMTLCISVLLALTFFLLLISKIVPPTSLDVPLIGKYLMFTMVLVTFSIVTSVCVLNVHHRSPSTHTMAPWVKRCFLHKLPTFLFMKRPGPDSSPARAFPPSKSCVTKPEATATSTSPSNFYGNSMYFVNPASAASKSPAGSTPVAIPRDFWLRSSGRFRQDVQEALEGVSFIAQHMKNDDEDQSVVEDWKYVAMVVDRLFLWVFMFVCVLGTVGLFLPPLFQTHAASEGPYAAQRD

[12] = [3H]-naloxone sites, rat forebrain

For `CCC1=NC(C)CC1(c1ccccc1)c1ccccc1.Cl` (centres unmarked) [EMDP, 2-ethyl-5-methyl-3,3,-diphenyl-1-pyrroline hydrochloride], the pKi ([1]; 2 nM [3H]-naloxone, rat forebrain, single-site fit) was 4.68, the “fold lower affinity than methadone” value [1, 12] was 1900 fold and ~ 1900 fold and the “sites competed for” value ([1]; even at a concentration of 100 μM) was 60%. The “open field locomotor activity” value ([2]; 5mg/kg s.c.) was “neither EDDP nor EMDP significantly altered open field locomotor activity”, the overall locomotor activity [3] was “did not significantly affect overall locomotor activity” and the “marbles buried vs vehicle” value ([4]; 1 mg/kg i.p.) was “not at the 1 mg/kg dose”. The “marbles buried vs vehicle” value ([4]; 5 mg/kg i.p.) was “buried significantly fewer marbles”, the “marbles buried vs vehicle” value ([4]; 10 mg/kg i.p.) was “buried significantly fewer marbles” and the “immobile time vs vehicle” value ([5]; 10 mg/kg s.c.) was “reduced immobile time”. The “immobile time vs vehicle” value ([5]; 20 mg/kg s.c.) was “reduced immobile time”, the “immobility time vs vehicle” value ([6]; 5 mg/kg i.p.) was “did not affect immobility time” and the “immobility time vs vehicle” value ([6]; 10 mg/kg i.p.) was “significantly reduced it”. The “ptosis over 3h observation” value ([7]; 20 mg/kg) was “ptosis was not apparent at any time”, the “ptosis observed during forced swim tests” value ([7]; 10 and 20 mg/kg) was “did not produce ptosis” and the Straub tail effects [8] was “failed to observe any Straub tail effects”. For the same molecule, the “potency relative to mecamylamine in blocking rat α3β4 nAChRs” value ([9]; ref Xiao et al) was “only one-sixth as potent”, the “block of rat α3β4 nAChR channels” value [9] was “potently block” and the “analgesia in the tail-flick assay” value [10] was “neither compound produces analgesia”. For the same molecule, the “potency relative to mecamylamine in blocking human α3β4 nAChRs” value [11] was “only half as potent as mecamylamine”.

For `CN[C@H]1CC[C@@H](c2ccc(Cl)c(Cl)c2)c2ccccc21` [sertraline, sertraline HCl, reference compound], the “immobile time vs vehicle” value ([5]; 20 mg/kg s.c.) was “significantly reduced immobile time”.

In the case of `CNC1(C)C2CCC(C2)C1(C)C` (centres unmarked) [Mecamylamine, Mecamylamine HCl], the “immobile time vs vehicle” value ([5]; 5 mg/kg s.c.) was “reduced immobile time”, the “onset of ptosis after injection” value ([7]; 5 mg/kg) was ≤ 15 min and the “ptosis observed during forced swim tests” value ([7]; 5 mg/kg) was “obvious ptosis”. The “ptosis over 3h observation” value ([7]; 5 mg/kg, significant at 30 and 45 min, not at 3 h) was “produced ptosis in a time-dependent manner”.

In the case of `CNC1=Nc2ccc(Cl)cc2C(c2ccccc2)=[N+]([O-])C1` [CDP, chlordiazepoxide HCl, reference compound], the “marbles buried vs vehicle” value ([4]; 10 mg/kg i.p.) was “buried significantly fewer marbles”.

In the case of “2-ethylidene-1,5,dimethyl-3,3-diphenylpyrrolidine perchlorate [EDDP]”, the “fold lower affinity than methadone” value [1, 12] was ~ 83 fold, the “fraction of binding sites competed for” value [1, 12] was “nearly all of the binding sites” and the “open field locomotor activity” value ([2]; 10mg/kg s.c.) was “neither EDDP nor EMDP significantly altered open field locomotor activity”. The “marbles buried vs vehicle” value ([4]; 5 mg/kg i.p.) was “buried significantly fewer marbles”, the “marbles buried vs vehicle” value ([4]; 10 mg/kg i.p.) was “did not reach statistical significance” and the “immobile time vs vehicle” value ([5]; 10 mg/kg s.c.) was “without effect”. The “duration of immobility vs vehicle” value ([6]; mouse, 1, 5, or 10 mg/kg i.p.) was “did not produce a significant effect on duration of immobility”, the Straub tail effects [8] was “failed to observe any Straub tail effects” and the “block of rat α3β4 nAChR channels” value [9] was “potently block”. The “analgesia in the tail-flick assay” value [10] was “neither compound produces analgesia”.
